SMILES strings stand for the structures. Calls of active or inactive are those of the source. The rule behind the calls is not given here.

One assay is filed under the species Mus musculus. Nature of the assay: Antinociceptive activity determined in acetic acid induced mouse writhing test. Type of assay: functional. (An intraperitoneal irritant provokes the stretching counted in writhing tests.)
Assay [1] has as its system Rattus norvegicus. Nature of the assay: Antagonist activity (administered subcutaneously) determined by rat tail flick test; Inactive at 10 mg/kg. Type of assay: functional, organism-based. Details: dose 10 mg/kg.
The subject of assay [2] is Rattus norvegicus. Nature of the assay: Agonist activity (administered subcutaneously) determined by rat tail flick test. Type of assay: functional. The settings on record: sc. (Hot-plate and tail-flick tests time the reaction to a heat stimulus.)
Assay [3] has as its system Rattus norvegicus. Kind of assay: Antagonist activity (administered subcutaneously) determined by rat tail flick test. Type of assay: functional. The settings on record: sc.

By ED50 is commonly meant the dose that gives a 50% effect, or the effect in half of the subjects. Take `O=C1CCC2C3Cc4cccc(O)c4C2(CCN3CC2CC2)C1` (centres undefined): it took a dose of 0.64 mg/kg to reach the 50% effect level in the assay listed under Mus musculus (ED50). In addition, the ED50 entry in the assay on Rattus norvegicus [1] is “inactive”.
As for `CN1CC[C@]23c4c5ccc(O)c4O[C@H]2[C@@H](O)C=C[C@H]3[C@H]1C5.CN1CC[C@]23c4c5ccc(O)c4O[C@H]2[C@@H](O)C=C[C@H]3[C@H]1C5.O=S(=O)(O)O`, the ED50 in the assay listed under Mus musculus was 0.8 mg/kg; in the assay on Rattus norvegicus [2], 7.3 mg/kg.
For `CN1CCC23CC(=O)CCC2C1Cc1cccc(O)c13` (centres undefined) the same measures were 0.18 mg/kg and 19.2 mg/kg.
For `CN1CCC23CC(=O)CCC2C1Cc1ccc(O)cc13` (centres undefined) the same measures were 0.15 mg/kg and 20 mg/kg.
In the assay listed under Mus musculus, `COc1cccc2c1C13CCN(C)C(C2)C1CCC(=O)C3` (centres undefined) returned an ED50 of 0.21 mg/kg.
Consider `O=C1CCC2C3Cc4cccc5c4C2(CCN3CC2CC2)C1O5` (centres undefined), for which the median effective dose (ED50) in the assay filed under Mus musculus was determined as 0.06 mg/kg; in the assay on Rattus norvegicus [3], 12.5 mg/kg.
Take `O=C1CCC2C3Cc4ccc(O)cc4C2(CCN3CC2CC2)C1` (centres undefined): the median effective dose (ED50) with Rattus norvegicus [3] came out at 2.3 mg/kg.
On to `C=CCN1CC[C@]23c4c5ccc(O)c4O[C@H]2[C@@H](O)C=C[C@H]3[C@H]1C5` [NALORPHINE], for which the ED50 came out at 1.22 mg/kg in the assay filed under Mus musculus and 0.86 mg/kg in the assay on Rattus norvegicus [3].

The record behind these values is ChEMBL document CHEMBL1121758, “(-)-4-Hydroxymorphinanones: their synthesis and analgesic activity” (1981).
